Experiments:
[1] = Kinematic viscosity at 40 C of surfactant base formulation with added agent (Cannon viscometer); type: physicochemical; settings: for Lowest viscosity achieved (cSt): Table 1, base formulation 24% sodium undecyl sulfate, 6% lauramidopropyl betaine, 1.6% perfume, agent at 2%, 4%, 6%, 8%, 40° C.; for Kinematic viscosity at 40 C. [cSt], 2% oil: agent added at 2% to base formulation; for Kinematic viscosity at 40 C. [cSt], 4% oil: agent added at 4% to base formulation; for Kinematic viscosity at 40 C. [cSt], 6% oil: agent added at 6% to base formulation; for Kinematic viscosity at 40 C. [cSt], 8% oil: agent added at 8% to base formulation
Excerpt: Referring to Tables 1 and 2, the base formulations were made by mixing 1.6% perfume, 24% sodium undecyl sulfate (CAS#1072-24-8) active, 6% lauramidopropyl betaine (CAS#4292-10-8) active and 60.4% deionized water which leaves 8% unfilled for the addition of a viscosity reducing agent (the balance being filled in by distilled water). For all compositions, the surfactant, water and additives including viscosity reducing agents were expected to be in a single phase.
The agents from Tables 1 and 2 were added to the base formulation at a percentage of 2%, 4%, 6%, and 8% into the above surfactant solution. The subsequent formulations were vortexed and put into oven at 60° C. overnight to form homogeneous solution. The viscosities of the formulations were measured with calibrated viscometers (Size 200/350/450) from Cannon Instrument Company (2139 High Tech Road, State College, Pa., USA, 16803).
After the equilibration, the formulations were drawn to reach the starting mark with a rubber suction bulb and the flow time between the starting mark and end mark was recorded for calculation. Each formulation was measured three times to calculate average and standard deviation. Between samples, viscometer was cleaned with water and acetone to rinse off residual.
Viscosity values were calculated based on the equation:
Viscosity (mm^2/s·(cSt))=Time (s)*Constant (mm^2/s^2·(cSt/s))
The time in the above equation is the flow time recorded in the experiment and the constant numbers for each calibrated viscometer were obtained from the manuals. […]
The viscosities of the formulations are measured with calibrated viscometers (Size 200/350/450) from Cannon Instrument Company (2139 High Tech Road, State College, Pa., USA, 16803). Prior to the measurement, the formulations are equilibrated in the viscometer reservoir for 30 min at 40° C. in water bath to ensure a homogeneous temperature is reached in the system. […]

[2] = Visual cloudiness of surfactant formulation with added agent after 20:1 dilution with water; type: physicochemical; design: key: Samples that appeared cloudy (turbid) within less than a day were noted as cloudy (“Yes”); Samples that did not appear cloudy (turbid) within less than a day were noted as not cloudy (“No”); settings: 0.5 g formula, 10 ml deionized water; for Cloudy at 1:20 dilution at 2%, 4%, and/or 6%: Table 3, visual, within less than a day; for Added at 2%: cloudy at 20:1 dilution: agent at 2%; for Added at 4%: cloudy at 20:1 dilution: agent at 4%; for Added at 6%: cloudy at 20:1 dilution: agent at 6%; for Added at 8%: cloudy at 20:1 dilution: agent at 8%
Procedure: Now referring to Tables 3 and 4, the following surfactant formulations were made by mixing 1.6% perfume, 24% sodium undecyl sulfate (CAS#1072-24-8) active, 6% lauramidopropyl betaine (CAS#4292-10-8) active, and 60.4% deionized water which leaves 8% unfilled for the addition of the listed agents (the balance being filled in by distilled water). The agents were added at a percentage of 2%, 4%, 6%, and 8% into the above surfactant formulation. The resulting formulations were vortexed and put into oven at 60° C. overnight to form homogeneous solution. For all formulations, the surfactant, water and additives, including the added agents, were expected to be in a single phase.
The resulting formulations were weighed out in a scintillation vial combined with 10 ml of water to achieve a representative dilution during use: 0.5 g formula, 10 ml deionized water for 20:1 dilution. After the combination of the ingredients, the vial was vigorously shaken by hand and the samples were visually inspected by looking at the solution against a dark background. Samples that appeared cloudy (turbid) within less than a day were noted as cloudy (“Yes”). […] Samples that appeared cloudy at the 20:1 dilution for any of the 2%, 4% or 6% concentration of oil may be most desirable by requiring a limited amount of the agent to be added, limiting cost and trade-offs associated with higher levels.
The appearance of a cloudy formulation at 1:20 dilution at 2%, 4%, and/or 6% can signal improved deposition of surfactant soluble active agents during consumer use.

SMILES	Lowest viscosity achieved (cSt) [1] [cSt]	Kinematic viscosity at 40 C. [cSt], 2% oil [1] [cSt]	Kinematic viscosity at 40 C. [cSt], 4% oil [1] [cSt]	Cloudy at 1:20 dilution at 2%, 4%, and/or 6% [2]	Added at 2%: cloudy at 20:1 dilution [2]	Kinematic viscosity at 40 C. [cSt], 6% oil [1] [cSt]	Kinematic viscosity at 40 C. [cSt], 8% oil [1] [cSt]	Added at 4%: cloudy at 20:1 dilution [2]	Added at 6%: cloudy at 20:1 dilution [2]	Added at 8%: cloudy at 20:1 dilution [2]
CCCCCCC1C(=O)CCC1C(=O)OC (stereo not shown) [Dihyro Iso Jasmonate]	119	334.9	119.1	No	No	–	–	–	–	–
CC(C)=CCC/C(C)=C/COC(=O)Cc1ccccc1 [Geranyl Phenyl Acetate]	34	224.0	76.0	Yes	Yes	34.3	36.6	Yes	Yes	Yes
C=C(C)[C@H]1CC=C(C)CC1 [Dipentene]	35	307.6	74.5	Yes	No	35.1	42.6	No	Yes	Yes
CCC(=O)OC1CC2CC1C1CC=CC21 (stereo not shown) [Cyclaprop]	404	404.2	–	No	No	–	–	No	–	–
CC(=O)OCCC(C)CCCC(C)C (stereo not shown) [3,7-Dimethyloctyl Acetate]	446	445.7	–	No	No	–	–	–	–	–
CCCCCCCCCCCCCCCC [Hexadecane]	18	21.1	18.1	No	No	–	–	No	–	–
CC1=CC=C(C(C)C)CC1 [alpha-Terpinene]	42	324.4	96.0	Yes	No	41.5	46.7	No	Yes	Yes
CC12CCC(CC1)C(C)(C)O2 [Eucalyptol]	203	527.3	292.9	No	No	203.1	–	No	No	–
